Test results: CN102850337A, “多氮唑联螺烯酮类化合物及其制备方法和用途” (Sichuan University, priority 2011, dated 2013)
pIC50: −log10 of the molar value. Where two headings read alike, the source gives them in different places.

Tests used:
[1] = system: human breast cancer MDA-MB-231 cells [人乳腺癌MDA-MB-231细胞]; experiment: CCK-8 in vitro tumour cell inhibition assay, MDA-MB-231 (Example 11, Tables 2-4); type: cell-based
[2] = system: skin cancer A431 cells, colon cancer HCT116 cells, gastric cancer MKN45 cells, ovarian cancer SKOV-3 cells [皮肤癌A431细胞、结肠癌HCT116细胞、胃癌MKN45细胞、卵巢癌SKOV-3细胞]; experiment: CCK-8 in vitro tumour cell inhibition assay (Example 10, Table 1); type: cell-based; details: A431, HCT116, MKN45, SKOV-3 cells; statement on Table 1 (IC50)

Row | Compound | pIC50 ([1]; 48h) | pIC50 ([1]; 72h) | inhibition at 5 µM ([1]; 48h, read-out: inhibition rate) [%] | inhibition at 5 µM ([1]; 72h, read-out: inhibition rate) [%] | inhibition at 50 µM ([1]; 24h, read-out: inhibition rate) [%] | inhibition at 50 µM ([1]; 48h, read-out: inhibition rate) [%] | inhibition at 50 µM ([1]; 72h, read-out: inhibition rate) [%] | further results
1 | Cn1nc(N2C(=O)COC23C=CC(=O)C=C3)nc1-c1ccccc1 [LHDYX-3, 4-(1-甲基-5-苯基-1H-1,2,4-三氮唑-3-基)-1-氧-4-氮螺[4.5]癸-6,9-二烯-3,8-二酮] | 5.53 | 5.84 |  |  |  |  |  | 
2 | O=C1C=CC2(C=C1)OCC(=O)N2c1nc(-c2ccccc2)nn1-c1ccccc1 [LHDYX-1, 4-(1,3-二苯基-1H-1,2,4-三氮唑-5-基)-1-氧-4-氮螺[4.5]癸-6,9-二烯-3,8-二酮] | 5.54 | 6.47 |  |  |  |  |  | pIC50 ([1]; 24h): 4.58; inhibition of cancer cells compared with doxorubicin [2]: 对癌细胞的抑制作用高于目前临床中已广泛使用抗肿瘤药物阿霉素(Doxorubicin); inhibitory activity on cancer cells [2]: 不同程度的抑制活性
3 | COC1=CC(=O)C=CC12OCC(=O)N2c1nc(-c2ccccc2)nn1-c1ccccc1 (stereo not shown) [LHDYX-4, 4-(1,3-二苯基-1H-1,2,4-三氮唑-5-基)-6-甲氧基-1-氧-4-氮螺[4.5]癸-6,9-二烯-3,8-二酮] |  |  | 4.3 | 17.2 | 42 | 98.4 | 100 | inhibition at 5 µM ([1]; 24h, read-out: inhibition rate (class symbol)): < 0%
4 | Cn1nc(-c2ccccc2)nc1N1C(=O)COC12C=CC(=O)C=C2 [LHDYX-2, 4-(1-甲基-3-苯基-1H-1,2,4-三氮唑-5-基)-1-氧-4-氮螺[4.5]癸-6,9-二烯-3,8-二酮] |  |  | 94.7 | 96.2 | 100 | 93.5 | 96.4 | inhibition at 0.05 µM ([1]; 24h, read-out: inhibition rate): 19.1%; inhibition at 0.05 µM ([1]; 48h, read-out: inhibition rate): 19%; inhibition at 0.05 µM ([1]; 72h, read-out: inhibition rate): 39.4%; inhibition at 0.5 µM ([1]; 24h, read-out: inhibition rate): 17.1%; inhibition at 0.5 µM ([1]; 48h, read-out: inhibition rate): 76.4%; inhibition at 0.5 µM ([1]; 72h, read-out: inhibition rate): 95.3%; inhibition at 5 µM ([1]; 24h, read-out: inhibition rate): 39.9%
